Drawing on ChEMBL document CHEMBL4371081, “The role of N-terminal heterocycles in hydrogen bonding to α-chymotrypsin” (Bioorg Med Chem Lett, 2019), this text covers inhibition and IC50 for 11 compounds.

Calls of active or inactive are those of the source. The rule behind the calls is not given here. Where a SMILES comes first, the peptide text is derived from it. [ ]: non-standard residue; d: D form. The star is where a group is joined. ξ: configuration not given here. Phe(ol) = N[C@H](CO)Cc1ccccc1; ξF = NC(Cc1ccccc1)C(=O)O; Boc = CC(C)(C)OC(=O)*

The species named for the first test is Homo sapiens. Nature of the test: Inhibition of alpha-chymotrypsin (unknown origin) at 500 uM using Ala-Ala-Phe-7-AMC as substrate measured over 10 mins by spectrophotometric method.
For the compound `CCOC(=O)c1ccc(C(=O)N[C@@H](CC(C)C)C(=O)N[C@H](CO)Cc2ccccc2)o1`, the inhibition entry is “inactive”.

With `CC(C)C[C@H](NC(=O)[C@H](C)NC(=O)OC(C)(C)C)C(=O)N[C@H](CO)Cc1ccccc1` (Boc-Ala-Leu-[Phe(ol)]), the inhibition entry is “inactive”.

On to `COC(=O)c1ccc(C(=O)N[C@@H](CC(C)C)C(=O)N[C@H](CO)Cc2ccccc2)[nH]1`, for which the inhibition result was “inactive”.

For the compound `COC(=O)c1ccc(C(=O)N[C@@H](CC(C)C)C(=O)N[C@H](CO)Cc2ccccc2)o1`, the inhibition result is “inactive”.

For the compound `COC(=O)c1ccc(C(=O)N[C@@H](CC(C)C)C(=O)N[C@H](CO)Cc2ccccc2)s1`, the inhibition result was “inactive”.

For the compound `COC(=O)c1cccc(C(=O)N[C@@H](CC(C)C)C(=O)N[C@H](CO)Cc2ccccc2)n1`, the inhibition result is “inactive”.

Tested on in the next test: not listed separately
Briefly: Inhibition of alpha-chymotrypsin (unknown origin) using Ala-Ala-Phe-7-AMC as substrate measured over 10 mins by spectrophotometric method. On the set-up: species or system Homo sapiens.
Broadly, the IC50 is the concentration that gives 50% inhibition. The low end stands for greater potency, the high end for weaker potency. Compound `COC(=O)c1ccc(C(=O)N[C@@H](CC(C)C)C(=O)NC(C=O)Cc2ccccc2)s1` (mixture of isomers) returned an IC50 of 40 µM. This counts as double-digit micromolar.

In turn, `COC(=O)c1ccc(C(=O)N[C@@H](CC(C)C)C(=O)NC(C=O)Cc2ccccc2)o1` (mixture of isomers) gave an IC50 of 36 µM.

Regarding `CC(C)C[C@H](NC(=O)[C@H](C)NC(=O)OC(C)(C)C)C(=O)NC(C=O)Cc1ccccc1` (stereo partly drawn) (Boc-Ala-Leu-[ξF]-aldehyde), half-maximal inhibition (IC50) required 1.4 µM.

With `COC(=O)c1cccc(C(=O)N[C@@H](CC(C)C)C(=O)NC(C=O)Cc2ccccc2)n1` (stereo partly specified), half-maximal inhibition (IC50) was put at 35 µM.

On to `COC(=O)c1ccc(C(=O)N[C@@H](CC(C)C)C(=O)NC(C=O)Cc2ccccc2)[nH]1` (mixture of isomers), for which half-maximal inhibition (IC50) required 1.1 µM.
